# Test system: T. brucei brucei clone 427-221a (bloodstream forms)
# Experiment: T. brucei brucei growth inhibition assay
# Type: cell-based
# Conditions: Trypanosoma brucei, 40 hours at 37° C., CellTiter-Glo ATP-bioluminescence
# Protocol: The growth inhibition assay for T. brucei brucei was conducted as described previously by Z. B. Mackey, et al (Kenny K. H. Ang, Joseline Ratnam, Jiri Gut, Jennifer Legac, Elizabeth Hansell, Zachary B. Mackey, Katarzyna M. Skrzypczynska, Anjan Debnath, Juan C. Engel, Philip J. Rosenthal, James H. McKerrow, Michelle R. Arkin, Adam R. Renslo (2011) “Mining a Cathepsin Inhibitor Library for New Antiparasitic Drug Leads”, PLoS Neglected Tropical Diseases, 5(5):e1023). Bloodstream forms of the monomorphic T. brucei brucei clone 427-221a were grown in complete HMI-9 medium containing 10% FBS, 10% Serum Plus medium (Sigma Inc., St. Louis, Mo., USA), 50 U/mL penicillin and […] (Invitrogen) at 37° C. under a humidified atmosphere and 5% CO2. Inhibitor stocks were prepared in 100% DMSO and screened at […] for percent inhibition values or serially diluted from […] in 10% DMSO for IC50 determinations. […] of diluted parasites ([…]) in sterile Greiner 96-well flat white opaque culture plates such that the final DMSO concentration was 0.5%. The 0% inhibition control wells contained 0.5% DMSO while 100% inhibition control wells contained 50 mM thimerosal (Sigma). After compound addition, plates were incubated for 40 hours at 37° C. At the end of the incubation period, […] of CellTiter-Glo™ reagent (Promega Inc., Madison, Wis., USA) was added to each well and plates were placed on an orbital shaker at room temperature for 2 min to induce lysis. After an additional 10 min of incubation without shaking to stabilize the signal, the ATP-bioluminescence of each well was determined using an Analyst HT plate reader (Molecular Devices, Sunnyvale, Calif., USA). Raw values were converted to log 10 and percentage inhibition calculated relative to the controls. IC50 curve fittings were performed with Prism 4 software as above. Pentamidine was used as a comparator in the assay.
row,Structure (SMILES),IC50 [µM]
1,"CN(C)CCCC1(c2ccc(F)cc2)OCc2cc(-c3cnc4ccccc4c3)ccc21 (stereo not shown) [Example 6, 3-[1-(4-fluorophenyl)]-[5-(quinolin-3-yl)-1,3-dihydro-2-benzofuran-1-yl]-N,N-dimethylpropan-1-amine]",3
2,"CN(C)CCCC1(c2ccc(F)cc2)OCc2cc(-c3cccc4[nH]ccc34)ccc21 (stereo not shown) [Example 1, 3-[1-(4-fluorophenyl)-5-(1H-indol-4-yl)-1,3-dihydro-2-benzofuran-1-yl]-N,N-dimethylpropan-1-amine]",1.5
3,"CN(C)CCCC1(c2ccc(F)cc2)OCc2cc(-c3cncc4ccccc34)ccc21 (stereo not shown) [Example 7, 3-[1-(4-fluorophenyl)]-[5-(isoquinolin-4-yl)-1,3-dihydro-2-benzofuran-1-yl]-N,N-dimethylpropan-1-amine]",1
4,CN(C)CCCC1(c2ccc(F)cc2)OCc2cc(-c3cc4ccccc4s3)ccc21 (stereo not shown) [Example 4],0.51
5,"CN(C)CCCC1(c2ccc(F)cc2)OCc2cc(-c3ccc4scnc4c3)ccc21 (stereo not shown) [Example 3, 3-[1-(4-fluorophenyl)-5-(1,3-benzothiazol-5-yl)-1,3-dihydro-2-benzofuran-1-yl]-N,N-dimethylpropan-1-amine]",1.2

# The next molecules have a lower IC50 than those just listed; values first:
row,IC50 [µM],Structure (SMILES)
1,0.41,"CN(C)CCCC1(c2ccc(F)cc2)OCc2cc(-c3ccc4ocnc4c3)ccc21 (stereo not shown) [Example 2, 3-[1-(4-flurophenyl)-5-(1,3-benzoxazol-5-yl)-1,3-dihydro-2-benzofuran-1-yl]-N,N-dimethylpropan-1-amine]"
2,0.11,"Cc1ccc2oc(-c3ccc4c(c3)COC4(CCCN(C)C)c3ccc(F)cc3)nc2c1 (stereo not shown) [Example 8, 3-[1-(4-fluorophenyl)-5-(5-methyl-1,3-benzoxazol-2-yl)-1,3-dihydro-2-benzofuran-1-yl]-N,N-dimethylpropan-1-amine]"
